Series [1] has as its target chitin synthase 1 (Chs 1) (Saccharomyces cerevisiae, UniProt P08004). The note with it: literature, E. Cabib 1991; cited from earlier work.
A further series has as its target T1, Chs 1 (Saccharomyces cerevisiae, UniProt P08004).
T1 sequence (P08004 1-1131): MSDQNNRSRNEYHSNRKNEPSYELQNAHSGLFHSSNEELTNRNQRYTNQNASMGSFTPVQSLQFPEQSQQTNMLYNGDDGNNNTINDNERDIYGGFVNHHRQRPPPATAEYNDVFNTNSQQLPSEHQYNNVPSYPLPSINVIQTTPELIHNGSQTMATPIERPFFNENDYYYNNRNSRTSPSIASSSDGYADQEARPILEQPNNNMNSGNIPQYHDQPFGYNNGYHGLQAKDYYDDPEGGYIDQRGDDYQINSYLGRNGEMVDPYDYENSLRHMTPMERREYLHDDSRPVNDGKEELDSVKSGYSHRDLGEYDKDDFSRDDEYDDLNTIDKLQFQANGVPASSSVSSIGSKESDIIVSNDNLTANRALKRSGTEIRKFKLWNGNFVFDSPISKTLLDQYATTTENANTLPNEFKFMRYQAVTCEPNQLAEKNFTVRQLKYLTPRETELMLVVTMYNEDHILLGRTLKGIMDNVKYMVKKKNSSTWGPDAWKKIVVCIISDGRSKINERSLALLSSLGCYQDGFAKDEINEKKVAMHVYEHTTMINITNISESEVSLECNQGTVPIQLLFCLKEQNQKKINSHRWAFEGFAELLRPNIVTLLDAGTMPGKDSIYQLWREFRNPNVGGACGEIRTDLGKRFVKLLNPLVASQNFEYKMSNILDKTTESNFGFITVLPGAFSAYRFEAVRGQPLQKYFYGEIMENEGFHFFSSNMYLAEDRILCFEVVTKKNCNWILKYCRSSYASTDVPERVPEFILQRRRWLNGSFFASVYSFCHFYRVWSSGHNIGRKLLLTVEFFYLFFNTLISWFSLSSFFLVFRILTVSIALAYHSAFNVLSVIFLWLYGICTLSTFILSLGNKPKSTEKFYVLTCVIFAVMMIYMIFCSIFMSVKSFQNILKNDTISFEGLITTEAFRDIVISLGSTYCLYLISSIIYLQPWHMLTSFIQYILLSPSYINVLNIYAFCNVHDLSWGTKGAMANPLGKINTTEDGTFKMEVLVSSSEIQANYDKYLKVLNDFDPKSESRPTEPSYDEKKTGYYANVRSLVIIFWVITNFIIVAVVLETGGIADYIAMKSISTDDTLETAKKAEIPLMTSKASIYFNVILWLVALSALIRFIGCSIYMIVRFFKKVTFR
Nature of the series: Inhibitory activity against Chs 1 (chitin formation from [14C]-UDP-N-acetylglucosamine in permeabilized overproducer cells). Format: biochemical. Here is the method: (§1) Inhibitory activity of Xanthofulvin against Chs 1 and Chs 2 from Saccharomyces cerevisiae was measured respectively.
(§2) The overproducer employed for Chs 1 was Saccharomyces cerevisiae (ura3) harbouring plasmid (CHSl, URA3). The cells were permeabilized with 0.5% digitonin for 15 min at 30° C., followed by treatment with trypsin at the final concentration of 100 μg/ml for 15 min at 30° C. After addition of trypsin inhibitor from soybean, 50 μl of 2.5×10^7 cells/ml was incubated for 1 hr at 30° C. with 40 μl of assay solution containing 50 mM MES pH 6.5, 5 mM Mg(OAc)2, 32 mM N-acetylglucosamine and 0.1 mM [^14 C]-UDP-N-acetylglucosamine, and 10 μl of sample solution. Reaction was terminated with addition of TCA and cells are collected on the filter and washed with 70% aqueous ethanol containing 0.3M acetic acid. Radioactivity of cells is counted with a liquid scientillation counter. Amount of chitin formed was determined on the basis of radioactivity incorporated into the cells (S. J. Silverman, A. Sburlati, M. J. Slater and E. Cabib. Proc. Natl. Acad. Sci. USA, 85, 4735-4739 (1988)).

The target of a further series is T2, Chs 2 (Saccharomyces cerevisiae, UniProt P14180).
T2 construct: digitonin-permeabilized, trypsin-treated cells
Nature of the series: Inhibitory activity against Chs 2 (chitin formation from [14C]-UDP-N-acetylglucosamine in permeabilized overproducer cells). The series is classed as biochemical. Here is the method: as §1, §2
Overproducer for Chs 2 was a Saccharomyces cerevisiae strain of disrupted Chs 1 gene (chs1:: URA3, leu2 ) with plasmid (CHS2, LEU2). Assay method was the same as the one for Chs 1 described above except for assay solution. Assay solution for Chs 2 contained 30 mM Tris (pH 7.5), 2.5 mM Co(OAc)2, 32 mM N-acetylglucosamine and 0.1 mM [^14 C]-UDP-N-acetylglucosamine (See: Silverman et al. supra).

A further series is described as follows: Acute toxicity. The note with it: in vivo.
Series [2] can be described thus: Solubility (physico-chemical properties). Format: physicochemical. An excerpt:
The physico-chemical properties of Xanthofulvin obtained as described in the Example given hereinbelow are as follows: […]

Like-named read-outs stand apart in the source and are kept apart here.

T2 sequence (P14180 whole entry): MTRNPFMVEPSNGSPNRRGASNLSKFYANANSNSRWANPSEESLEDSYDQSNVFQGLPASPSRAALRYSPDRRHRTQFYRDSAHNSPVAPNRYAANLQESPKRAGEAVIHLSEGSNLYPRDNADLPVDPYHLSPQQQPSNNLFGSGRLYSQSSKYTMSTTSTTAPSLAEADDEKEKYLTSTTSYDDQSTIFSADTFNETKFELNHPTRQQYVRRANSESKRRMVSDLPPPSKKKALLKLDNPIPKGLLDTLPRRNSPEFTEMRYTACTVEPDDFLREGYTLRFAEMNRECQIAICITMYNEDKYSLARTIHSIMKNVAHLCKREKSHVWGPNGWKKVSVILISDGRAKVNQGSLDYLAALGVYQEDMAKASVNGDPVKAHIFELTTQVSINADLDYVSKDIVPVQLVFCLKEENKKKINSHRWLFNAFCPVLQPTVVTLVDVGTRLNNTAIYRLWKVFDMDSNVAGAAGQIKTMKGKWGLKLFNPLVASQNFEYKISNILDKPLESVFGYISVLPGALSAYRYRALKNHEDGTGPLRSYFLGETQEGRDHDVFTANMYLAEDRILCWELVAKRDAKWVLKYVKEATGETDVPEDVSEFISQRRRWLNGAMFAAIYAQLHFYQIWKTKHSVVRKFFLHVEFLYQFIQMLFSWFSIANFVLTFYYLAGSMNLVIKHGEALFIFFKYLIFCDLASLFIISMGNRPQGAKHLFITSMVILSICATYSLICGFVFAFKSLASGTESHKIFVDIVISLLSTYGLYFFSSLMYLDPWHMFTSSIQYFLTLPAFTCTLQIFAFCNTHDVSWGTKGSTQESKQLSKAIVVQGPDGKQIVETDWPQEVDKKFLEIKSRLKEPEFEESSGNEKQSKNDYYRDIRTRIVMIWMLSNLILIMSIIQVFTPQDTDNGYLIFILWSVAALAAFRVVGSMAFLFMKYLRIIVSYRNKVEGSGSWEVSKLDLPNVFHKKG

Consider `C[C@@H]([C@H](N)C(=O)N[C@H](C(=O)O)[C@H]1OC(n2cc(C=O)nc2O)[C@H](O)[C@@H]1O)[C@H](O)c1ccc(O)cn1` (stereo partly drawn) [nikkomycin X], for which the “Inhibition of chitin synthase 1 versus Chs 2 (in words)” value in series [1] was “inhibit chitin synthase 1 (Chs 1) rather than Chs 2”.
Take `NC(=O)OC[C@H](O)[C@@H](O)[C@H](N)C(=O)N[C@H](C(=O)O)[C@H]1O[C@@H](n2cc(C(=O)O)c(=O)[nH]c2=O)[C@H](O)[C@@H]1O` [polyoxin D, reference compound]: the IC50 was determined as 0.26 µM against Chs 1 and 10.3 µM against Chs 2. Also, the “Inhibition of chitin synthase 1 versus Chs 2 (in words)” value in series [1] is “inhibit chitin synthase 1 (Chs 1) rather than Chs 2”.
As to `CC(=O)c1c(C)c(/C(O)=C2\COc3cc(O)c(O)c(C(=O)O)c3C2=O)cc2c(=O)c3c(C(=O)O)c(O)c(O)cc3oc12` [Xanthofulvin], the Acute toxicity result in “Acute toxicity” is “not observed”. Also, the IC50 at Chs 1 (Chs 1 overproducer, MES pH 6.5, Mg(OAc)2, 1 hr at 30° C., read-out: IC50 Chs 1) is over 200 µM; on Chs 2 (Chs 2 overproducer, Tris pH 7.5, Co(OAc)2, read-out: IC50 Chs 2), 2.2 µM. Also, the Solubility result in series [2] (in DMSO) is listed as “Soluble”; in series [2] (in H2O), “Slightly soluble”; in series [2] (in MeOH) it was “Soluble”; in series [2] (in n-hexane), “Insoluble”. Also, at Chs 2 (summary of Table 1), the “Chs 2 inhibiting activity (in words)” value is listed as “high Chs 2 inhibiting activity”.

Source of the values: patent US5229123A, “Antifungal agents” (Hoffmann-La Roche Inc., priority 1991, dated 1993).
